Measurements reported in US9840481B2, “Allosteric modulators of nicotinic acetylcholine receptors” (MERCK SHARP & DOHME CORP., priority 2016, dated 2017).
Where two headings read alike, the source gives them in different places.

Molecular target: T1, human α7 nAChR stably expressed in a HEK cell line (with human RIC-3) (Homo sapiens, UniProt P36544)
T1 construct: PrecisION hnAChR α7/RIC-3
Test: Automated patch-clamp electrophysiology functional assay (Assay A), IonFlux HT, whole-cell population patch
Assay type: cell-based
Experimental: The α7 nAChR positive allosteric modulator (PAM) activity of the present compounds may be tested using assays known in the art. The α7 nAChR PAMs described herein have activities in an automated patch-clamp electrophysiology functional assay as described in the examples. The assay was performed using the IonFlux HT in a whole-cell, population patch configuration. See Golden et al. Assay Drug Dev. Technol. (2011) 9:608-619. The compounds were assessed for their ability to modulate the function of the human α7 nAChR stably expressed in a HEK cell line both in the presence, and in the absence of the natural α7 agonist acetylcholine. By performing a series of such measurements at different concentrations, the effective concentration of the α7 nAChR PAMs (EC50) was determined. See Spencer et al. Assay Drug Dev. Technol. (2012) 10:313-324.
Direct activation of α7 (agonism), and potentiation of 5 acetylcholine-evoked α7 currents was determined as follows:
Automated Patch-Clamp Electrophysiology Functional Assay (Assay A)
Automated patch-clamp electrophysiology was performed using the IonFlux HT (Fluxion Biosciences Inc., San Francisco, Calif.) in the whole-cell, population patch configuration. Test compounds were assessed for their ability to modulate the function of the α7 nicotinic acetylcholine receptor both in the presence, and in the absence of the natural α7 agonist acetylcholine. A HEK cell line stably expressing both human RIC-3 and human α7 (PrecisION hnAChR α7/RIC-3, Eurofins Pharma, St. Charles, Mo.) was cultured in 175 cm^2 triple-layer tissue culture flasks to no more than 90% confluency in DMEM/F-12 growth media supplemented with 10% heat-inactivated fetal bovine serum, 1% non-essential amino acids, 0.625 μg/mL Puromycin, and 400 μg/mL Geneticin. Immediately prior to assay, cells were detached by first aspirating growth media, rinsing with Dulbecco's phosphate buffered saline, and then adding 10 mL of Accutase (Innovative Cell Technologies, San Diego, Calif.) to the flask and then incubating at 37° C. for 5 minutes. Detached cells were then recovered by the addition of 40 mL of CHO-serum-free media supplemented with 25 mM HEPES, and rocked gently in a 50 mL conical tube for 20 minutes prior to patch-clamp assay. After recovery, cells were pelleted by centrifugation at 1,000 RPM for 1 minute in a compact bench top centrifuge; recovery media was aspirated and cells were resuspended in external recording solution (150 mM NaCl, 5 mM KCl, 2 mM CaCl2, 1 mM MgCl2, 10 mM HEPES, 12 mM dextrose) to a density of 5.0×10^6 cells/mL. The cell suspension was added to the cell inlet wells on an IonFlux HT population patch plate which had previously been rinsed and primed with deionized H2O. Test compounds were serially diluted in DMSO and then resuspended to the final test concentration in external recording solution, with, or without […] acetylcholine added to the external recording solution; test compounds were then transferred to the IonFlux HT population patch plate. Internal recording solution (110 mM TrisPO4, 28 mM TrisBase, 0.1 mM CaCl2, 2 mM MgCl2, 11 mM EGTA, 4 mM MgATP) was added to the internal recording solution inlet wells on the IonFlux HT patch plate previously loaded with cells and test compounds, and the plate loaded into the IonFlux HT instrument. A protocol was executed on the IonFlux HT to trap the cells, break into the cells, and establish the whole-cell recording configuration; cells were voltage-clamped at a holding potential of −60 mV for the duration of the experiment, all experiments were conducted at room temperature, and the IonFlux HT injection pressure was 8 psi for solution applications. Upon establishing the whole-cell configuration, external recording solution was perfused into the recording chambers for 120 seconds and then 40 μM acetylcholine was applied for 1 second and immediately washed off with external recording solution for 60 seconds. […]

[1] = automated patch-clamp electrophysiology functional assay (Assay A), potency class by EC50, read-out: α7 nAChR Potency
[2] = electrophysiology EC50, HEK cells expressing human α7/RIC-3, 40 μM acetylcholine, holding potential −60 mV, room temperature, read-out: α7 nAChR EC50

T1 sequence (P36544 23-502): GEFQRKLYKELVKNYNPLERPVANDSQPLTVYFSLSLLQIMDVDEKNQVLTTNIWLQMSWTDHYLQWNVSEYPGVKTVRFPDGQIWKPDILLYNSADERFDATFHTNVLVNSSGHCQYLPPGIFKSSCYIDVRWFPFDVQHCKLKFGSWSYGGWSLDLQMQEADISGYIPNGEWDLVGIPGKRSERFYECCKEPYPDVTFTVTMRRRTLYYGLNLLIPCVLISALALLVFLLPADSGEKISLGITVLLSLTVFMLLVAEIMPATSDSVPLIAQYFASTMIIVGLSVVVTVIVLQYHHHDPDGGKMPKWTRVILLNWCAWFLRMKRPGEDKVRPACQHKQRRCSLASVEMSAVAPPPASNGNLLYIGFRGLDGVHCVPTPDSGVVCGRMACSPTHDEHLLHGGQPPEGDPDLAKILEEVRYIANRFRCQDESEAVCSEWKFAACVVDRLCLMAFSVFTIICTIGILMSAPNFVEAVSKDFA

SMILES | EC50 [1] [nM] | EC50 [2] [nM]
NS(=O)(=O)c1ccc([C@@H]2C[C@H]2c2ccn(Cc3cccc(F)c3)n2)cc1 [Example 23, 4-{(1R,2R)-2-[1-(3-Fluorobenzyl)-1H-pyrazol-3-yl]cyclopropyl}benzenesulfonamide] | 100 to 500 | 460
COc1ccc(Cl)cc1-c1noc([C@@H]2[C@@H](c3ccc(S(N)(=O)=O)cc3)C2(C)C)n1 [Example A1] | 500 to 5000 | 2900
CC1(C)[C@H](c2ccc(S(N)(=O)=O)cc2)[C@H]1c1nc(C2(c3ccccc3)CC2)no1 [Example B13] | 500 to 5000 | 4100
NS(=O)(=O)c1ccc([C@@H]2C[C@H]2c2nc(-c3cccc(F)c3)cs2)cc1 [Example 14, 4-{(1R,2R)-2-[4-(3-Fluorophenyl)-1,3-thiazol-2-yl]cyclopropyl}benzenesulfonamide] | 100 to 500 | 200
CC1(C)[C@H](c2ccc(S(N)(=O)=O)cc2)[C@H]1c1nc(C2CCOC2)no1 (some centres unmarked) [Example B11] | 5000 to 50000 | 5800
NS(=O)(=O)c1ccc([C@@H]2[C@@H](c3nsc(N4CCCCC4)n3)C2(F)F)cc1 [Example L12] | 100 to 500 | –
CC1(C)[C@H](c2ccc(S(N)(=O)=O)cc2)[C@H]1c1nc(C2CCC2)no1 [Example B3] | 5000 to 50000 | 8700
NS(=O)(=O)c1ccc([C@@H]2C[C@H]2c2nc(-c3ccccc3C(F)(F)F)no2)cc1 [Example C6] | 500 to 5000 | –
CC1(C)[C@H](c2ccc(S(N)(=O)=O)cc2)[C@H]1c1nc(C2CC(F)(F)C2)no1 [Example B8] | 500 to 5000 | –
NS(=O)(=O)c1ccc([C@@H]2C[C@H]2c2nc(-c3cc(F)ccc3C(F)(F)F)no2)cc1 [Example C8] | 100 to 500 | 500
CC1(C)[C@@H](c2ccc(S(N)(=O)=O)cc2)[C@@H]1c1nnc(-c2ccc(F)cc2F)o1 [Example 6, 4-{(1S,3S)-3-[5-(2,4-Difluorophenyl)-1,3,4-oxadiazol-2-yl]-2,2-dimethylcyclopropyl}benzenesulfonamide] | 500 to 5000 | 1100
CC1(C)[C@@H](c2ccc(S(N)(=O)=O)cc2)[C@@H]1c1noc(-c2c(F)ccc(F)c2F)n1 [Example 3, 4-((1S,3S)-2,2-Dimethyl-3-(5-(2,3,6-trifluorophenyl)-1,2,4-oxadiazol-3-yl)cyclopropyl) benzenesulfonamide] | ≤ 100 | 83
CC1(C)[C@H](c2ccc(S(N)(=O)=O)cc2)[C@H]1c1cnc(-c2ccccc2)o1 [Example 10, 4-[(1R,3R)-2,2-Dimethyl-3-(2-phenyl-1,3-oxazol-5-yl)cyclopropyl]benzenesulfonamide] | 500 to 5000 | 1200
CC1(C)[C@H](c2ccc(S(N)(=O)=O)cc2)[C@H]1c1nc(-c2ccccc2)no1 [Example A3] | 500 to 5000 | –
Cc1ccc(-c2noc([C@@H]3C[C@H]3c3ccc(S(N)(=O)=O)cc3)n2)cc1 [Example C19] | 500 to 5000 | 510
CC(C)Oc1ccc(Cl)cc1-c1noc([C@@H]2[C@@H](c3ccc(S(N)(=O)=O)cc3)C2(C)C)n1 [Example A4] | 500 to 5000 | 4800

Now from value to compound:

EC50 [1] [nM] | EC50 [2] [nM] | SMILES
100 to 500 | 190 | NS(=O)(=O)c1ccc([C@@H]2C[C@H]2c2nc(C3CCCCC3)no2)cc1 [Example D8]
100 to 500 | – | CC1(C)[C@@H](c2ccc(S(N)(=O)=O)cc2)[C@@H]1c1noc(-c2ccncc2C(F)(F)F)n1 [Example I19]
500 to 5000 | – | CC1(C)[C@@H](c2ccc(S(N)(=O)=O)cc2)[C@@H]1c1noc(-c2ccc(OCCF)nc2)n1 [Example I14]
100 to 500 | – | CC1(C)[C@H](c2ccc(S(N)(=O)=O)cc2)[C@H]1c1noc(-c2ccccc2)n1 [Example L17]
500 to 5000 | – | CC1(C)[C@@H](c2ccc(S(N)(=O)=O)cc2)[C@@H]1c1noc(-c2cscn2)n1 [Example I6]
100 to 500 | 220 | CC1(C)[C@H](c2ccc(S(N)(=O)=O)cc2)[C@H]1c1noc(-c2cccc(F)c2)n1 [Example L18]
≤ 100 | 64 | CC1(C)[C@@H](c2ccc(S(N)(=O)=O)cc2)[C@@H]1c1noc(C2CCCC2)n1 [Example I26]
500 to 5000 | – | CC1(C)[C@@H](c2ccc(S(N)(=O)=O)cc2)[C@@H]1c1noc(-c2cccc3c2OCC(=O)N3)n1 [Example I31]
100 to 500 | 230 | NS(=O)(=O)c1ccc([C@@H]2C[C@H]2c2nc(-c3cccnc3C3CC3)no2)cc1 [Example D24]
100 to 500 | 160 | NS(=O)(=O)c1ccc([C@H]2[C@H](c3nc(C4CCCCC4)cs3)C2(F)F)cc1 [Example K19]
100 to 500 | – | CC1(C)[C@@H](c2ccc(S(N)(=O)=O)cc2)[C@@H]1c1nc(-c2ccccc2F)co1 [Example K1]
500 to 5000 | 920 | CC1(C)[C@@H](c2ccc(S(N)(=O)=O)cc2)[C@@H]1c1nnc(C2CCCC2)s1 [Example G14]
5000 to 50000 | 6800 | CC1(C)[C@@H](c2ccc(S(N)(=O)=O)cc2)[C@@H]1c1nc(-c2ccccn2)no1 [Example D4]
500 to 5000 | 2100 | NS(=O)(=O)c1ccc([C@@H]2C[C@H]2c2nc(C3(c4ccccc4)CC3)no2)cc1 [Example D23]
500 to 5000 | – | CC1(C)C(c2nc(-c3ccccc3)no2)C1c1ccc(S(N)(=O)=O)cc1F (single isomer, unassigned) [Example M7]
100 to 500 | – | CC1(C)[C@@H](c2ccc(S(N)(=O)=O)cc2)[C@@H]1c1noc(-c2cccc(OC(F)(F)C(F)F)c2)n1 [Example H14]
500 to 5000 | 1900 | C#Cc1ccc(-c2nc([C@H]3[C@H](c4ccc(S(N)(=O)=O)cc4)C3(C)C)no2)cc1 [Example H11]
500 to 5000 | – | CC1(C)[C@@H](c2ccc(S(N)(=O)=O)cc2)[C@@H]1c1nc(-c2ccc(C(F)(F)F)nc2)no1 [Example D29]
500 to 5000 | – | CC1(C)[C@@H](c2ccc(S(N)(=O)=O)cc2)[C@@H]1c1nc(C2CCCCC2O)no1 (some centres unmarked) [Example D32]
500 to 5000 | 950 | CC1(C)[C@@H](c2ccc(S(N)(=O)=O)cc2)[C@@H]1c1cn(-c2cccc(F)c2)nn1 [Example L6]
500 to 5000 | 620 | CC(C)(C)c1coc([C@H]2[C@H](c3ccc(S(N)(=O)=O)cc3)C2(C)C)n1 [Example K7]
100 to 500 | 350 | CC(F)(F)c1nc([C@H]2[C@H](c3ccc(S(N)(=O)=O)cc3)C2(C)C)no1 [Example I16]
500 to 5000 | 2200 | CC1(C)[C@@H](c2ccc(S(N)(=O)=O)cc2)[C@@H]1c1nnc(C2CCCCC2)s1 [Example G13]
500 to 5000 | 4500 | CC1(C)[C@@H](c2ccc(S(N)(=O)=O)cc2)[C@@H]1c1nnc(CC2CC2)o1 [Example G11]
100 to 500 | 420 | CC1(C)[C@H](c2ccc(S(N)(=O)=O)cc2)[C@H]1c1nnc(-c2ccccc2)s1 [Example F4]
5000 to 50000 | – | NS(=O)(=O)c1ccc([C@@H]2C[C@H]2c2nc(-c3ccccc3)c[nH]2)cc1 [Example K12]
500 to 5000 | 1000 | CC1(C)[C@H](c2ccc(S(N)(=O)=O)cc2)[C@H]1c1nnc(-c2ccccc2)[nH]1 [Example F5]
500 to 5000 | 730 | NS(=O)(=O)c1ccc([C@@H]2[C@@H](c3ncc(C4CCCC4)o3)C2(F)F)cc1 [Example J11]
500 to 5000 | – | CC1(C)[C@H](c2ccc(S(N)(=O)=O)cc2)[C@H]1c1nc(C2CCCC2)co1 [Example J8]
